Tests used:
[1] = target: T1, human recombinant monoacylglycerol lipase (hMAGL) (Homo sapiens, UniProt Q99685); experiment: fluorometric 7-HRO hydrolysis assay, residual activity at […]; type: biochemical
T1 construct: gene MGLL
T1 sequence (Q99685 1-303): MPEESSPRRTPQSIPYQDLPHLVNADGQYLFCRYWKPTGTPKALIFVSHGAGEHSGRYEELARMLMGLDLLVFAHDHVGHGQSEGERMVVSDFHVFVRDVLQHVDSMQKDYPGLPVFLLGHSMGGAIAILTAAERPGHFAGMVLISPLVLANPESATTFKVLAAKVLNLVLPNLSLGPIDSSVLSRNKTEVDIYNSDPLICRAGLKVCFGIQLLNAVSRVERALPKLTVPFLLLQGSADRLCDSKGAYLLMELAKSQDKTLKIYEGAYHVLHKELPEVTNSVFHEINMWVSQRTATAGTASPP

[2] = target: T1, human recombinant monoacylglycerol lipase (hMAGL); experiment: fluorometric 7-HRO hydrolysis assay with recombinant hMAGL; dilution reversibility and Lineweaver-Burk kinetics; type: biochemical

Structure (SMILES)	fluorometric 7-HRO hydrolysis assay, residual activity at 50 nM-100 μM [1]	IC50 [2] [µM]
Oc1ccc(-c2nc(-c3ccccc3)c(-c3ccccc3)[nH]2)cc1 [compound 1, 2-(4-Hydroxyphenyl)-4,5-Diphenylimidazole]	all tested compounds interact with MAGL, leading to a concentration-dependent reduction in enzyme activity	–
CCCC(=O)Oc1ccc(-c2nc(-c3ccccc3)c(-c3ccccc3)[nH]2)cc1 [compound 2, Butyric Acid Ester of 2-(4-Hydroxyphenyl)-4,5-Diphenylimidazole]	all tested compounds interact with MAGL, leading to a concentration-dependent reduction in enzyme activity	–
CCCCCCCC(=O)Oc1ccc(-c2nc(-c3ccccc3)c(-c3ccccc3)[nH]2)cc1 [compound 3, Octanoic Acid Ester of 2-(4-Hydroxyphenyl)-4,5-Diphenylimidazole]	–	21
CCCCCCCCCCCCCCCC(=O)Oc1ccc(-c2nc(-c3ccccc3)c(-c3ccccc3)[nH]2)cc1 [compound 4, Palmitic Acid Ester of 2-(4-Hydroxyphenyl)-4,5-Diphenylimidazole]	–	6.5

— PMC11990452, “Discovery of MAGL Inhibition by Lophine Derivatives: An Unexpected Finding from Chemiluminescent Assay Development” (Molecules, 2025)
